{"source": "ChEMBL document CHEMBL3132769", "about": "“Fragment growing to retain or alter the selectivity of anchored kinase hinge-binding fragments” (Medchemcomm, 2014)", "key": {"[1]": {"biological_target": "T1, Protein kinase C zeta type (Homo sapiens) (UniProt Q05513)", "T1 sequence (whole entry)": "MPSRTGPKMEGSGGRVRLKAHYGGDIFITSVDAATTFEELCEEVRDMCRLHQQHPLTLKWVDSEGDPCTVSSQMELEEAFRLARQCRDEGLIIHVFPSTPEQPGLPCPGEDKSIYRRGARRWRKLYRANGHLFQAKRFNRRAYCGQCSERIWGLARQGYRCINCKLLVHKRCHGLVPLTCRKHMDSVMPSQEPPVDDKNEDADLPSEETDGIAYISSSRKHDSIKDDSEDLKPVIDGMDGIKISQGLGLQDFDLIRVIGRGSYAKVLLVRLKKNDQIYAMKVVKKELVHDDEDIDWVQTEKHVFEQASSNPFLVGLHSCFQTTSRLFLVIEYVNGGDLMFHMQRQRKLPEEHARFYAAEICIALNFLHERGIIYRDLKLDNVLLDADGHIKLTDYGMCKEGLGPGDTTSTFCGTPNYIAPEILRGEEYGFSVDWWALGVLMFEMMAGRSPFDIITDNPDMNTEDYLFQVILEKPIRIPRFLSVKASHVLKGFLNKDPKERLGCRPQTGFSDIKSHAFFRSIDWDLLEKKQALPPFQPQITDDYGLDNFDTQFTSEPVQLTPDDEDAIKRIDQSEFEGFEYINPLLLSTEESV", "assay": "Inhibition of human full length PKC zeta expressed in baculovirus assessed as substrate phosphorylation using fluorescence-labelled peptides as substrate at 0.06 uM after 90 mins by microfluidic peptide phosphorylation assay"}, "[2]": {"biological_target": "Tyrosine-protein kinase Fyn (Homo sapiens) (UniProt P06241)", "sequence (P06241 2-537 limits assumed)": "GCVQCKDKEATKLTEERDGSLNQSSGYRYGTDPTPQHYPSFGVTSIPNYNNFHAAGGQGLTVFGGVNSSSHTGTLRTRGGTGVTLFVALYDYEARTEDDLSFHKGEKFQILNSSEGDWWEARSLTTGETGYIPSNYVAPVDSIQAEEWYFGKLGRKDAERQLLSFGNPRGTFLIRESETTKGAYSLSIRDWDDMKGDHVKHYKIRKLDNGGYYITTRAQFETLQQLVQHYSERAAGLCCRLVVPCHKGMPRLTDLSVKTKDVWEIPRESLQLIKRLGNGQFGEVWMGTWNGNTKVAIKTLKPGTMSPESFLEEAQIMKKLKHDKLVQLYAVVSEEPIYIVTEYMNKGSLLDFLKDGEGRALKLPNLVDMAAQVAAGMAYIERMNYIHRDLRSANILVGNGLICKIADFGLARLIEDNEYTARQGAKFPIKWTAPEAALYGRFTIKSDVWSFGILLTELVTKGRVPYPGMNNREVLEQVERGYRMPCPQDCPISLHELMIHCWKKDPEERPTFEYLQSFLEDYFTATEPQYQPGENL", "assay": "Inhibition of human full length FYN expressed in baculovirus assessed as substrate phosphorylation using fluorescence-labelled peptides as substrate at 0.06 uM after 90 mins by microfluidic peptide phosphorylation assay"}, "[3]": {"biological_target": "RAF proto-oncogene serine/threonine-protein kinase (Homo sapiens) (UniProt P04049)", "sequence (P04049 whole entry, the tested form may be a part)": "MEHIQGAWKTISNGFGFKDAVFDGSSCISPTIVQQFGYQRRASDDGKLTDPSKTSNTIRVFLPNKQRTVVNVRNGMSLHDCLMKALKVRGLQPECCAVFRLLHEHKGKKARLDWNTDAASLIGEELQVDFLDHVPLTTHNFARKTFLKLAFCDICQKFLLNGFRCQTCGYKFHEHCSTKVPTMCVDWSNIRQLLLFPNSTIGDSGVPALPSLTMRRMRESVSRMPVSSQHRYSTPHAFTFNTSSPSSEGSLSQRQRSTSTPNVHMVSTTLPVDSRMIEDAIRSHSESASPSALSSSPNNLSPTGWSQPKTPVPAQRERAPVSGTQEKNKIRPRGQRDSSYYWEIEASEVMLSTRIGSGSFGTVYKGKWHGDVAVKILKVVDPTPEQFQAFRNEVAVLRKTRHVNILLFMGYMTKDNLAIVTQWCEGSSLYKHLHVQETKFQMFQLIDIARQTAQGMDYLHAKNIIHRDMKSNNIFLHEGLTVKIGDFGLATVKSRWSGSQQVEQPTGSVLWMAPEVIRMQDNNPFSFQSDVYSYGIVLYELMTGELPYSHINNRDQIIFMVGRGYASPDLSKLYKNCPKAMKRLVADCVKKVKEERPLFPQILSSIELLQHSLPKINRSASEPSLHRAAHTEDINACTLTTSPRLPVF", "assay": "Inhibition of human truncated c-Raf expressed in baculovirus assessed as substrate phosphorylation using fluorescence-labelled peptides as substrate at 420 uM after 90 mins by microfluidic peptide phosphorylation assay"}, "[4]": {"biological_target": "Mitogen-activated protein kinase 3 (Homo sapiens) (UniProt P27361)", "sequence (P27361 whole entry)": "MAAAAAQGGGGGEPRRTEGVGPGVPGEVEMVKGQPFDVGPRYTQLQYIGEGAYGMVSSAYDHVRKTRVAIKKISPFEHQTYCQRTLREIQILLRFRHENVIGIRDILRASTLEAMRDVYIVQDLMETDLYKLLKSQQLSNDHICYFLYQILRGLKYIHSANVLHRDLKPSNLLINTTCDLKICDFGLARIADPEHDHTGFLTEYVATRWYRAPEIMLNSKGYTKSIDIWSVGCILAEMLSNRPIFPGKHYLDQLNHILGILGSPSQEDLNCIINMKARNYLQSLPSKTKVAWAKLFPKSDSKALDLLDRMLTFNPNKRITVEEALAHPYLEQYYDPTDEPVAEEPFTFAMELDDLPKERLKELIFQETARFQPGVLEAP", "assay": "Inhibition of human full length ERK1 expressed in Escherichia coli cell assessed as substrate phosphorylation using fluorescence-labelled peptides as substrate at 9 uM after 90 mins by microfluidic peptide phosphorylation assay"}, "[5]": {"biological_target": "MAP kinase-activated protein kinase 2 (Homo sapiens) (UniProt P49137)", "sequence (P49137 whole entry, looked up)": "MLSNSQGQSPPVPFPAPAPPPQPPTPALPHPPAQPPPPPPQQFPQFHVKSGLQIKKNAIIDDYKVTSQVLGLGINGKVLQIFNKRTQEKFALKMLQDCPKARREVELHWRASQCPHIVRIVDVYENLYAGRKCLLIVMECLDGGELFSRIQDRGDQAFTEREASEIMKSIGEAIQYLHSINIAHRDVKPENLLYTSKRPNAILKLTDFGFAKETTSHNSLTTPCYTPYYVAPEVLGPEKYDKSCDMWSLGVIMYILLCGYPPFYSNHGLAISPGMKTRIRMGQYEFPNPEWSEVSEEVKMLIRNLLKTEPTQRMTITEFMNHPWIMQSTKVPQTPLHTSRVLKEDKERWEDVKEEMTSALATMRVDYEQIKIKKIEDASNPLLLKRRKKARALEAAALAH", "assay": "Inhibition of human full length MAPKAPK2 expressed in baculovirus assessed as substrate phosphorylation using fluorescence-labelled peptides as substrate at 9 uM after 90 mins by microfluidic peptide phosphorylation assay"}, "[6]": {"biological_target": "Mitogen-activated protein kinase 1 (Homo sapiens) (UniProt P28482)", "sequence (P28482 whole entry)": "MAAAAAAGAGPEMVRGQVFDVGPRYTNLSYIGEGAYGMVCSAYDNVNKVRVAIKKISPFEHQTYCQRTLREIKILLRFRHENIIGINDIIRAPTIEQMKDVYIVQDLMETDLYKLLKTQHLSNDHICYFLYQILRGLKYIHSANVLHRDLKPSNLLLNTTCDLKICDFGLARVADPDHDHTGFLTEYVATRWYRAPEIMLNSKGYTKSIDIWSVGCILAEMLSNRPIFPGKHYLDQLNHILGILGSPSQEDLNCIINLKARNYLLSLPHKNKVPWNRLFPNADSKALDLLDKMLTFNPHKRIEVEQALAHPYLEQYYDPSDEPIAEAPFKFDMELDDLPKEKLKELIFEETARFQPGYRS", "assay": "Inhibition of human full length ERK2 expressed in Escherichia coli cell assessed as substrate phosphorylation using fluorescence-labelled peptides as substrate at 95 uM after 90 mins by microfluidic peptide phosphorylation assay"}, "[7]": {"biological_target": "T2, MAP kinase-activated protein kinase 5 (Homo sapiens) (UniProt Q8IW41)", "T2 sequence (whole entry)": "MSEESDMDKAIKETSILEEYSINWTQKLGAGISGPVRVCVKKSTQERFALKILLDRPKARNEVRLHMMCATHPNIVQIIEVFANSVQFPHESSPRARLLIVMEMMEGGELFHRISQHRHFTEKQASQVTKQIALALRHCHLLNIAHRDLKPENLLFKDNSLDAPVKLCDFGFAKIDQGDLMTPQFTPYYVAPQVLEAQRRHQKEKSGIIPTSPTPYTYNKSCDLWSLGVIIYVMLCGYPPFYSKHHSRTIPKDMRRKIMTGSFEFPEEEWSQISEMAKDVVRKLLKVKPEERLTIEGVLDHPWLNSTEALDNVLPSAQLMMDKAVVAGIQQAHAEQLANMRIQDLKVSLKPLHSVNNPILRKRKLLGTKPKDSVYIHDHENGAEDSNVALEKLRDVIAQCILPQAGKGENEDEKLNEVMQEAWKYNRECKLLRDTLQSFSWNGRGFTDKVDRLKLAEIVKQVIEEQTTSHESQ", "assay": "Inhibition of human full length PRAK expressed in baculovirus assessed as substrate phosphorylation using fluorescence-labelled peptides as substrate at 95 uM after 90 mins by microfluidic peptide phosphorylation assay"}, "[8]": {"biological_target": "MAP kinase-activated protein kinase 2 (Homo sapiens) (UniProt P49137)", "assay": "Inhibition of human full length MAPKAPK2 expressed in baculovirus assessed as substrate phosphorylation using fluorescence-labelled peptides as substrate at 8 uM after 90 mins by microfluidic peptide phosphorylation assay"}, "[9]": {"biological_target": "Calcium/calmodulin-dependent protein kinase type II subunit beta (Homo sapiens) (UniProt Q13554)", "sequence (Q13554 whole entry, the tested form may be a part)": "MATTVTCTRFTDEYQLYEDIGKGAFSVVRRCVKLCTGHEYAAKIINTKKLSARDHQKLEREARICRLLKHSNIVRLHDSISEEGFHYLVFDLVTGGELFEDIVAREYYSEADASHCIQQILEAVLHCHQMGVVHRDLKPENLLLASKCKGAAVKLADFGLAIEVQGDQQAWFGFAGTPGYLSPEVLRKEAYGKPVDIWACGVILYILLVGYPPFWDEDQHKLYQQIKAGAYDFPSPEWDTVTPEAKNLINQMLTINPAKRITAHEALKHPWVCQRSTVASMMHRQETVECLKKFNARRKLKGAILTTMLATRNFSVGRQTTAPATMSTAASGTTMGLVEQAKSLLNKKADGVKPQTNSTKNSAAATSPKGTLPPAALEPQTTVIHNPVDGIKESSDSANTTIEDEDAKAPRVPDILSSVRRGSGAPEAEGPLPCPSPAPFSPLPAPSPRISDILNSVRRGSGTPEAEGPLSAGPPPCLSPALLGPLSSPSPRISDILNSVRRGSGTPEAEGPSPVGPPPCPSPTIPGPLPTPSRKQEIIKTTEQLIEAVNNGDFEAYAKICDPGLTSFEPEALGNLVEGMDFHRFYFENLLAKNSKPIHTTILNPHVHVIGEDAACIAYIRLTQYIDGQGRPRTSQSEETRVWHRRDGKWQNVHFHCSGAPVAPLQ", "assay": "Inhibition of human CAMK2 beta catalytic domain expressed in baculovirus assessed as substrate phosphorylation using fluorescence-labelled peptides as substrate at 1000 uM after 90 mins by microfluidic peptide phosphorylation assay"}, "[10]": {"biological_target": "Ribosomal protein S6 kinase alpha-4 (Homo sapiens) (UniProt O75676)", "sequence (O75676 whole entry, looked up)": "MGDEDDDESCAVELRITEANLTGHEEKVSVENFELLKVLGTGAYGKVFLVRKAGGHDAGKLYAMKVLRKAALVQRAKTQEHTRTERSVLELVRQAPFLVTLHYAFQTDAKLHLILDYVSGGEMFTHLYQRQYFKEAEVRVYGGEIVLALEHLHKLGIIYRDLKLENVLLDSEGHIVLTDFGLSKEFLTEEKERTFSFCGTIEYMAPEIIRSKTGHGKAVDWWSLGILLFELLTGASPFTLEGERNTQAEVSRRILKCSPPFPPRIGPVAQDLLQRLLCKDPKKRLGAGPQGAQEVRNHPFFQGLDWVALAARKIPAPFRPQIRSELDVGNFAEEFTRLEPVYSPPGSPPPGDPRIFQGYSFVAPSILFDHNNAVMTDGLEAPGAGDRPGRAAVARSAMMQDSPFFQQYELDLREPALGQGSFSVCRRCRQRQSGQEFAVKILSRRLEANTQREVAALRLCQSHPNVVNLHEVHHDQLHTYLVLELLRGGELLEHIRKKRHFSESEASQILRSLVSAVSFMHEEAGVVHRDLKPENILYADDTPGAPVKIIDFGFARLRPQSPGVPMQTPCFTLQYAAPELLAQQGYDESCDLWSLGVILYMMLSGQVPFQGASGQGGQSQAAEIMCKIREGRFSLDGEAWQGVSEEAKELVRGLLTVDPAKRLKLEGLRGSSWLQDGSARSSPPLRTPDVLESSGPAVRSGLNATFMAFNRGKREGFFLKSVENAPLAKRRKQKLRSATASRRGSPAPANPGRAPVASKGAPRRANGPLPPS", "assay": "Inhibition of human full length MSK2 expressed in baculovirus assessed as substrate phosphorylation using fluorescence-labelled peptides as substrate at 1000 uM after 90 mins by microfluidic peptide phosphorylation assay"}, "[11]": {"biological_target": "T3, Serine/threonine-protein kinase D2 (Homo sapiens) (UniProt Q9BZL6)", "T3 sequence (whole entry)": "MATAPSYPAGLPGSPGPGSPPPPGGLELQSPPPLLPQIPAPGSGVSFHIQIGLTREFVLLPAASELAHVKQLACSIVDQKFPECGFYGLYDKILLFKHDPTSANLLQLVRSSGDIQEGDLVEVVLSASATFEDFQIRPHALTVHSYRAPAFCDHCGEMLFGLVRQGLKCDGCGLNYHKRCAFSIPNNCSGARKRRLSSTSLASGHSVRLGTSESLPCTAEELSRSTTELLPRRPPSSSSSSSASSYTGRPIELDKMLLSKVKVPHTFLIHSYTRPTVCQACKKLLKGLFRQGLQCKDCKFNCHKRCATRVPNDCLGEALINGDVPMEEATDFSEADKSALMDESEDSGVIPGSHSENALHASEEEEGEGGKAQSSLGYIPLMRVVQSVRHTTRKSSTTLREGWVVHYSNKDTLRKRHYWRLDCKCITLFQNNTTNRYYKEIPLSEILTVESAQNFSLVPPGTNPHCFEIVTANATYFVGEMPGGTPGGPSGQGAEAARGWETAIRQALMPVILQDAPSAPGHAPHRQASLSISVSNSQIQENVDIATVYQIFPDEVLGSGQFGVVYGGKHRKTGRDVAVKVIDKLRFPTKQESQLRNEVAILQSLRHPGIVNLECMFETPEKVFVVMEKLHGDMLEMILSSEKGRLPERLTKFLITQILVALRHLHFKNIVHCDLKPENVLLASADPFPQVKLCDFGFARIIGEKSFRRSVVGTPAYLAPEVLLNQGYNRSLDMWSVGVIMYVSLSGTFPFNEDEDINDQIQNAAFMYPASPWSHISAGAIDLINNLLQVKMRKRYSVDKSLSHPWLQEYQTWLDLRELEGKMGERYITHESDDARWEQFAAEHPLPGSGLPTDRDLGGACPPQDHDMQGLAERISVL", "assay": "Inhibition of human full length PKD2 expressed in baculovirus assessed as substrate phosphorylation using fluorescence-labelled peptides as substrate at 2 uM after 90 mins by microfluidic peptide phosphorylation assay"}}, "data": [{"smiles": "NC1(Cc2ccc(Cl)cc2)CCN(c2ncnc3[nH]ccc23)CC1", "values": [{"measurement": "inhibition", "setting": "[1]", "result": 0, "unit": "%"}, {"measurement": "inhibition", "setting": "[2]", "result": 3, "unit": "%"}]}, {"smiles": "c1nc(N2CCOCC2)c2nc[nH]c2n1", "values": [{"measurement": "inhibition", "setting": "[3]", "result": 52, "unit": "%"}]}, {"smiles": "NCC1CN(c2ncnc3[nH]c4cnccc4c23)CCO1", "note": "(stereo unspecified)", "values": [{"measurement": "inhibition", "setting": "[4]", "result": 8.5, "unit": "%"}, {"measurement": "inhibition", "setting": "[5]", "result": 19.5, "unit": "%"}]}, {"smiles": "NCCc1ccc(-c2ncnc3[nH]cnc23)cc1", "values": [{"measurement": "inhibition", "setting": "[6]", "result": 55.5, "unit": "%"}, {"measurement": "inhibition", "setting": "[7]", "result": 35, "unit": "%"}]}, {"smiles": "NCC1CCN(c2ncnc3[nH]ccc23)CC1", "values": [{"measurement": "inhibition", "setting": "[8]", "result": 81, "unit": "%"}]}, {"smiles": "c1cnc2[nH]ccc2c1", "values": [{"measurement": "inhibition", "setting": "[9]", "result": 30, "unit": "%"}, {"measurement": "inhibition", "setting": "[10]", "result": 81, "unit": "%"}]}, {"smiles": "NC1CCN(c2ncnc3[nH]ccc23)CC1", "values": [{"measurement": "inhibition", "setting": "[11]", "result": 6.5, "unit": "%"}]}]}
